The source of these data is US20110053883A1, “AGENT THAT MODULATES PHYSIOLOGICAL CONDITION OF PESTS, INVOLVED IN INSECT C-JUN AMINO-TERMINAL KINASE ACTIVITY” (SUMITOMO CHEMICAL COMPANY, LIMITED, priority 2005, published 2011).

Like-named read-outs stand apart in the source and are kept apart here.

The target of experiment [1] is aphid c-Jun NH2-terminal kinase (Aphis gossypii, UniProt A0A9P0JGV4). Description: In vitro aphid c-Jun NH2-terminal kinase activity measurement (IMAP fluorescence polarization, peptide substrate). The experiment is classed as biochemical, cotton aphid (Aphis gossypii). The following applies: for IC50: concentrations 100 μM to 0.03 μM, XLfit, read-out: Activity of inhibiting c-Jun NH2-terminal kinase activity (IC50, (μM)); for inhibition at 10 µM: test compound at final concentration of 10 μM, relative to DMSO, read-out: Activity of inhibiting c-Jun NH2-terminal kinase activity (inhibition degree (%) at 10 μM addition). As for the experimental part: Selection of a compound which modulates the activity of a c-Jun NH2-terminal kinase was performed in a system where the activity of a c-Jun NH2-terminal kinase which is modulated by adding a test compound to an in vitro reaction system using the aphid c-Jun NH2-terminal kinase prepared in Example 7 is measured and evaluated.
Measurement of the activity of the aphid c-Jun NH2-terminal kinase was performed using IMAP screening Express Kit with progressive Binding system (manufactured by Molecular Device) according to a method described in the manual annexed to the system and employing, as a substrate, a peptide comprising the amino acid sequence of SEQ ID NO: 13 to which biotin was added at the amino-terminus, and a peptide comprising the amino acid sequence of SEQ ID NO: 14 in which the carboxyl-terminus was fluorescently labeled.
For measuring the activity, the activity of the aphid c-Jun NH2-terminal kinase was measured when a test compound dissolved in DMSO was contained to a final concentration of 10 μM. In addition, the activity of the aphid c-Jun NH2-terminal kinase was measured when DMSO was contained in place of a test compound. Then, a ratio (%) of a measured value of the activity of the aphid c-Jun NH2-terminal kinase when a test compound dissolved in DMSO was contained, relative to a measured value of the activity of aphid c-Jun NH2-terminal kinase when DMSO was contained in place of the test compound was calculated, and a value obtained by subtracting the calculated value from 100% was adopted as an inhibition degree (%). Results in each test compound are shown in Table 4 in Example 9 together with results of Example 9.
The activity of aphid c-Jun NH2-terminal kinase was measured when a test compound dissolved in DMSO was contained to a final concentration of each concentration of 100 μM, 30 μM, 10 μM, 3 μM, 1 μM, 0.3 μM, 0.1 μM or 0.03 μM. IC50 (μM) was calculated from the result of each concentration at each test compound using a concentration-dependent test analyzing software XL fit (manufactured by idbs). Results are shown in Table 5 in Example 10 together with results of Example 9.
Background: Polarisation of emitted light reports the rotation of a fluorescent probe.

Another experiment has as its system Aphis gossypii. The experiment in a line: Pesticidal activity test, rearing on artificial feed containing the test compound. The experiment is classed as in vivo. The following applies: 144 h, read-out: Determination result of pesticidal activity; for pest or weed control at 50 ppm: test compound in DMSO to a final concentration of 50 ppm. As for the experimental part:
A sterilized artificial feed having the following composition (Table 3) was prepared. Then, according to the same manner as that of the method described in Handbook of Insect Rearing Vol. 1 (Elsevier Science Publishers 1985) pp. 35 to pp. 36 except that a test compound dissolved in DMSO to a final concentration of 640 μM was added at 0.5 volume of the artificial feed, and components were mixed, Aphis gossypii was reared. […] Controlling value(%)={1−(Cb×Tai)/(Cai×Tb)}×100 Letters in the equation represent the following meanings. Cb: Number of surviving worms before treatment in non-treated section Cai: Number of surviving worms at observation in non-treated section Tb: Number of surviving worms before treatment in treated section Tai: Number of surviving worms at observation in treated section […]

Setting [2] is: in artificial feed, surviving Aphis gossypii six days after rearing.
[3] abbreviates: test compound in DMSO to a final concentration of 640 μM, in artificial feed, surviving Aphis gossypii six days after rearing.

aphid c-Jun NH2-terminal kinase, sequence (A0A9P0JGV4 entry or part of it): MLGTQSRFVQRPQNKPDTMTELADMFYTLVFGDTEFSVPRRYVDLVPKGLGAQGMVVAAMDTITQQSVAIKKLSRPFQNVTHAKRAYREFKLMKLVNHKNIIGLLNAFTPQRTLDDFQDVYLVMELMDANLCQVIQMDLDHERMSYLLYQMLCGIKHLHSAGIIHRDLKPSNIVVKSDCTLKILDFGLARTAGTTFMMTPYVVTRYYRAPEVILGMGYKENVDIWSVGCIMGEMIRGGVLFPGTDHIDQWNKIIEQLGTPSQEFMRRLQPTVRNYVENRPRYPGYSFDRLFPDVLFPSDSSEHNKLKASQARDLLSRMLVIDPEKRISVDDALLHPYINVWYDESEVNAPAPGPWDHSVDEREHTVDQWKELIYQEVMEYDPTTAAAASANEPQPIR

Turning to `COc1ccc(C(=O)c2ccccc2)c(O)c1` [DD08100], the half-inhibitory concentration (IC50) (usually the concentration needed to halve the response being measured) in experiment [1] is over 100 µM. The pest or weed control at 50 ppm in the experiment with Aphis gossypii (setting [2]) is under 30%.
For `O=C1c2ccccc2-c2n[nH]c3cccc1c23` [Anthra[1,9-CD] pyrazole-6(2H)-one, reference compound], the inhibition (in general, the share of the control response that was lost under treatment) at 10 µM in experiment [1] turned out to be 83%. Moreover, the pest or weed control at 640 µM with Aphis gossypii (setting [3]) is over 30%.
The like results for `O=C1NC(=O)C(c2c[nH]c3ccccc23)=C1c1c[nH]c2ccccc12` [Arcyriarubin A, reference compound] were, in that order, 73% and over 30%.
For the compound `O=C1CC2(Oc3ccccc3O2)C(=O)O1` [DB04029], the IC50 in experiment [1] was over 100 µM. The pest or weed control at 50 ppm in the experiment on Aphis gossypii (setting [2]) was under 30%.
Regarding `Sc1ncnc2nc[nH]c12` [DD08068], the IC50 in experiment [1] is over 100 µM. Besides, the pest or weed control at 50 ppm in the experiment on Aphis gossypii (setting [2]) is under 30%.
Take `CC(C)(C)n1nc(-c2cccc3ccccc23)c2c(N)ncnc21` [4-amino-1-tert-butyl-3-(1-naphthyl) pyrazolo(3,4-d) pyrimidine, reference compound]: the inhibition at 10 µM in experiment [1] was 68%. In addition, in the experiment on Aphis gossypii (Aphis gossypii), the pest or weed control at 640 µM was over 30%.
In the case of `OCC1OC(n2cnc3c(O)ncnc32)C(O)C1O` (stereo not shown) [DC05429], in experiment [1], the IC50 is over 100 µM. The pest or weed control at 50 ppm in the experiment with Aphis gossypii (setting [2]) is under 30%.
Take `CCOC(=O)/C(=C(/F)SCC(C)=O)C(F)(F)F` [DF06524]: the IC50 in experiment [1] turned out to be 47.9 µM. Further, the pest or weed control at 50 ppm with Aphis gossypii (setting [2]) was over 30%.
